Reference: patent US9340803B2, “3-hydroxypropionic acid and other organic compounds” (Cargill, Incorporated, priority 2000, dated 2016)

Key:
[1] = system: 3-hydroxypropionyl-CoA dehydratase (OS19); assay: 3-hydroxypropionyl-CoA dehydratase specificity control reactions, MALDI-TOF MS; format: biochemical, Chloroflexus aurantiacus; settings: 1 mM CoA ester, 80% D2O
Experimental: Cell free extracts were prepared by growing cells as described above. The cells were harvested by centrifugation and disrupted by sonication. The sonicated cell suspension was centrifuged to remove cell debris, and the supernatant was used in the assays. The ability of the 3-hydroxypropionyl-CoA dehydratase to perform the following three reactions was measured using MALDI-TOF MS:
The assay mixture contained 50 mM Tris-HCl (pH 7.5), 1 mM CoA ester, and about 1 μg cell free extract. Reactions were allowed to proceed at room temperature and were stopped by adding 1 volume 10% trifluroacetic acid (TFA). The reaction mixtures were purified prior to MALDI-TOF MS analysis using Sep Pak Vac C18 50 mg columns (Waters, Inc.). The columns were conditioned with 1 mL methanol and then equilibrated with two washes of 1 mL 0.1% TFA. The sample was applied to the column, and the flow through was discarded. The column was washed twice with 1 mL 0.1% TFA. The sample was eluted in 200 μL 40% acetonitrile, 0.1% TFA. The acetonitrile was removed by centrifugation in vacuo. Samples were prepared for MALDI-TOF MS analysis by mixing 1:1 with 110 mM sinapinic acid in 0.1% TFA, 67% acetonitrile. The samples were allowed to air dry.
A series of control reactions were performed to confirm the specificity of the 3-hydroxypropionyl-CoA dehydratase. […]

[2] = system: CoA transferase (propionyl-CoA transferase or pct) from Megasphaera elsdenii; assay: CoA transferase activity assay (DTNB/citrate synthase coupled, OD 412 nm) with cell free extract; format: biochemical; settings: 25 μM CoA-ester substrate, 200 mM sodium acetate, pH 7.0; cell free extract of E. coli expressing the CoA transferase
Experimental: The plasmid was transformed into Tuner (DE3) pLacI chemically competent cells (Novagen, Madison, Wis.), and expression from the construct tested. Briefly, a culture was grown overnight to saturation and diluted 1:20 the following morning in fresh LB medium with the appropriate antibiotics. The culture was grown at 37° C. with aeration to an OD600 of about 0.6. The culture was induced with IPTG at a final concentration of 100 μM. The culture was incubated for an additional two hours at 37° C. with aeration. Aliquots were taken pre-induction and 2 hours post-induction for SDS-PAGE analysis. A band of the expected molecular weight (55,653 Daltons predicted from the sequence) was observed after IPTG treatment. This band was not observed in cells containing a plasmid lacking the nucleic acid encoding the transferase.
Cell free extracts were prepared to assess enzymatic activity. Briefly, the cells were harvested by centrifugation and disrupted by sonication. The sonicated cell suspension was centrifuged to remove cell debris, and the supernatant was used in the assays.
Transferase activity was measured in the following assay. The assay mixture used contained 100 mM potassium phosphate buffer (pH 7.0), 200 mM sodium acetate, 1 mM dithiobisnitrobenzoate (DTNB), 500 μM oxaloacetate, 25 μM CoA-ester substrate, and 3 μg/mL citrate synthase. If present, the CoA transferase transfers the CoA from the CoA ester to acetate to form acetyl-CoA. The added citrate synthase condenses oxaloacetate and acetyl-CoA to form citrate and free CoASH. The free CoASH complexes with DTNB, and the formation of this complex can be measured by a change in the optical density at 412 nm. The activity of the CoA transferase was measured using the following substrates: lactyl-CoA, propionyl-CoA, acrylyl-CoA, and 3-hydroxypropionyl-CoA. The units/mg of protein was calculated using the following formula: (ΔE/min*Vf*dilution factor)/(VS*14.2)=units/mL where ΔE/min is the change in absorbance per minute at 412 nm, Vf is the final volume of the reaction, and VS is the volume of sample added. The total protein concentration of the cell free extract was about 1 mg/mL so the units/mL equals units/mg.

[3] = OS17 polypeptide activity, disappearance of NAD(P)H at 340 nm; format: biochemical, Chloroflexus aurantiacus; settings: 3-HP 1 mM as substrate; protein extract of BL21-DE3/pET11a-OS17
Experimental: To assay OS17 polypeptide function, a 100 mL culture of BL21-DE3/pET11a-OS17 cells was started using 1 mL of overnight grown culture as an inoculum. The culture was grown to an OD of 0.5-0.6 and was induced with 100 μM IPTG. After two and a half hours of induction, the cells were harvested by spinning at 8000 rpm in the floor centrifuge. The cells were washed with 10 mM Tris-HCl (pH 7.8) and passed twice through a French Press at a gauge pressure of 1000 psi. The cell debris was removed by centrifugation at 15,000 rpm. The activity of the OS17 polypeptide was measured spectrophotometrically, and the products formed during this enzymatic transformation were detected by LC/MS. The assay mix was as follows (J. Bacteriol., 181:1088-1098 (1999)):
The initial rate of reaction was measured by monitoring the disappearance of NAD(P)H at 340 nm. The activity of the OS17 polypeptide was measured using 3-HP as the substrate. The units/mL of total protein was calculated using the formula set forth in Example 1. The activity of the expressed OS17 polypeptide was calculated to be 0.061 U/mL of total protein. The reaction products were purified using a Sep Pak Vac column (Waters). The column was conditioned with 1 mL methanol and washed two times with 0.5 mL 0.1% TFA. […] The reaction products were analyzed by LC/MS.

Compound	activity of 3-hydroxypropionyl-CoA dehydratase enzyme on CoA ester [1]	CoA transferase activity, Units/mg [2] [Units/mg]	activity of the expressed OS17 polypeptide [3]
CC(O)C(=O)SCCNC(=O)CCNC(=O)[C@H](O)C(C)(C)COP(=O)(O)OP(=O)(O)OC[C@H]1O[C@@H](n2cnc3c(N)ncnc32)[C@H](O)[C@@H]1OP(=O)(O)O (stereo partly shown) [Lactyl-CoA]	not active	211	–
C=CC(=O)SCCNC(=O)CCNC(=O)[C@H](O)C(C)(C)COP(=O)(O)OP(=O)(O)OC[C@H]1O[C@@H](n2cnc3c(N)ncnc32)[C@H](O)[C@@H]1OP(=O)(O)O [Acrylyl-CoA]	–	118	–
CCC(=O)SCCNC(=O)CCNC(=O)[C@H](O)C(C)(C)COP(=O)(O)OP(=O)(O)OC[C@H]1O[C@@H](n2cnc3c(N)ncnc32)[C@H](O)[C@@H]1OP(=O)(O)O [Propionyl-CoA]	–	144	–
CC(C)(COP(=O)(O)OP(=O)(O)OC[C@H]1O[C@@H](n2cnc3c(N)ncnc32)[C@H](O)[C@@H]1OP(=O)(O)O)[C@@H](O)C(=O)NCCC(=O)NCCSC(=O)CCO [3-Hydroxypropionyl-CoA]	active	110	–
OS17 polypeptide: C. aurantiacus polypeptide having CoA synthase, dehydratase, and dehydrogenase activity (propionyl-CoA synthetase)	–	–	0.061 U/mL of total protein
